What all share (type): functional
One experiment relates to PC-3. The experiment is described as follows: Antiproliferative activity against human PC-3 cells assessed as cell growth inhibition incubated for 72 hrs by MTT assay. A general note: Formazan colour is commonly taken as a measure of viable cells.
The next experiment relates to A549. Kind of experiment: Antiproliferative activity against human A549 cells assessed as cell growth inhibition incubated for 72 hrs by MTT assay.
The subject of a further experiment is HCT-116. The experiment is described as follows: Antiproliferative activity against human HCT-116 cells assessed as cell growth inhibition incubated for 72 hrs by MTT assay.

Molecules are shown by their SMILES. Some results are limits rather than exact numbers.

In general, GI50 refers to the concentration that inhibits growth by half.

As for `O=C(c1ccc(N2N=C(c3ccccc3)/C(=N\Nc3ccccc3)C2=O)cc1)N1CCC(N2CCCCC2)CC1`, the GI50 amounted to 12.8 µM in the experiment on PC-3, 14.5 µM in the experiment with A549 and 8.75 µM with HCT-116.
On to `O=C(c1ccc(N2N=C(c3ccccc3)/C(=N/Nc3ccccc3)C2=O)cc1)N1CCNCC1`, for which the GI50 in the experiment on PC-3, in the experiment with A549 and in the experiment with HCT-116 was over 50 µM in each case.
As to `CN1CCC(NC(=O)c2cccc(N3N=C(c4ccccc4)/C(=N/Nc4ccccc4)C3=O)c2)CC1`, the concentration for 50% growth inhibition (GI50) in the experiment with PC-3 is 15 µM; with A549 it was 9.06 µM; in the experiment with HCT-116, 5.83 µM.
In the case of `CN(C)C(=O)c1ccc(N2N=C(c3ccccc3)/C(=N/Nc3ccccc3)C2=O)cc1`, the 50% growth inhibitory concentration (GI50) in the experiment with PC-3, in the experiment with A549 and in the experiment with HCT-116 was over 50 µM throughout.
`CN(C)C1CCN(C(=O)c2ccc(N3N=C(c4ccccc4)C(=C4CCN(C(=O)c5ccc(O)cc5)CC4)C3=O)cc2)CC1`: the GI50 was over 50 µM with PC-3, 33.6 µM in the experiment with A549 and 34.7 µM in the experiment with HCT-116.
The matching figures for `O=C1/C(=N\Nc2ccccc2)C(c2ccccc2)=NN1c1ccccc1`: over 50 µM, over 50 µM and over 50 µM.
On the same counts, the results for `CN1CCN(C(=O)c2ccc(N3N=C(c4ccccc4)/C(=N/Nc4ccccc4)C3=O)cc2)CC1` are over 50 µM, 22.9 µM and 21.9 µM.
Take `COc1cc(N/N=C2\C(=O)N(c3ccc(C(=O)N4CCC(N(C)C)CC4)cc3)N=C2c2ccccc2)cc(OC)c1OC`: the GI50 amounted to 5.77 µM with PC-3, 2.9 µM with A549 and 5.51 µM in the experiment with HCT-116.
In the case of `CC(C)Oc1cc(F)ccc1N/N=C1\C(=O)N(c2ccc(C(=O)N3CCC(N(C)C)CC3)cc2)N=C1c1ccccc1`, the GI50 came out at 2.42 µM with PC-3, 6.13 µM in the experiment with A549 and 2.2 µM in the experiment with HCT-116.
`CN(C)C1CCN(C(=O)c2ccc(N3N=C(c4ccccc4)/C(=N/Nc4ccc5ccccc5c4)C3=O)cc2)CC1`: the GI50 in the experiment on PC-3 amounted to 4.78 µM; in the experiment with A549 it was 4.52 µM; in the experiment on HCT-116, 2.18 µM.
The matching figures for `O=C(c1ccc(N2N=C(c3ccccc3)/C(=N/Nc3ccccc3)C2=O)cc1)N1CCN(C2COC2)CC1`: over 50 µM, over 50 µM and over 50 µM.
On the same counts, the results for `CN(C)CCCNC(=O)c1ccc(N2N=C(c3ccccc3)/C(=N/Nc3ccccc3)C2=O)cc1` are 3.76 µM, 3.32 µM and 2.14 µM.
Turning to `O=C(c1cscn1)N1CCC(C2=NN(c3nc(-c4ccccc4)cs3)C(=O)/C2=N\Nc2nccs2)CC1`, the concentration for 50% growth inhibition (GI50) in the experiment with PC-3, with A549 and in the experiment on HCT-116 was over 50 µM in each case.
With `CC1CCN(C(=O)c2cccc(N3N=C(c4ccccc4)/C(=N/Nc4ccccc4)C3=O)c2)CC1`, the values for the GI50 with PC-3, with A549 and in the experiment on HCT-116 were 2.41 µM, 2.72 µM and 3.44 µM, respectively.
With `O=C(c1ccc(N2N=C(c3ccccc3)/C(=N/Nc3ccccc3)C2=O)cc1)N1CCCCC1`, the GI50 in the experiment on PC-3, in the experiment on A549 and with HCT-116 was over 50 µM throughout.
Turning to `O=C1CCN(C(=O)c2ccc(N3N=C(c4ccccc4)/C(=N/Nc4ccccc4)C3=O)cc2)CC1`, the GI50 with PC-3, in the experiment with A549 and in the experiment on HCT-116 was over 50 µM throughout.
As for `CN(C)C1CCN(C(=O)c2ccc(N3N=C(c4ccccc4)/C(=C/NCc4ccccc4)C3=O)cc2)CC1`, the GI50 in the experiment with PC-3, with A549 and with HCT-116 was over 20 µM each time.
`CN(C)C1CCN(C(=O)c2cccc(N3N=C(c4ccccc4)/C(=N/Nc4ccccc4)C3=O)c2)CC1`: the figures for the GI50 in the experiment with PC-3, in the experiment on A549 and with HCT-116 were 10.7 µM, 2.68 µM and 5.23 µM, respectively.
For the molecule `CS(=O)(=O)N1CCN(C(=O)c2ccc(N3N=C(c4ccccc4)/C(=N/Nc4ccccc4)C3=O)cc2)CC1`, the GI50 in the experiment with PC-3, with A549 and in the experiment on HCT-116 was over 50 µM throughout.

The values are drawn from ChEMBL document CHEMBL5325413, “Optimization of BAX trigger site activator BTSA1 with improved antitumor potency and in vitro ADMET properties” (Eur J Med Chem, 2023).
